Converted amounts (≈) assume the structure as drawn.
How the values were obtained:
Staphylococcus aureus [1] = experiment: Antibacterial activity against methicillin-resistant Staphylococcus aureus clinical isolate 7 incubated for 16 to 18 hrs by CLSI-based microbroth dilution method; assay type: functional; details: time 16-18 hrs
Staphylococcus aureus [2] = experiment: Antibacterial activity against methicillin-resistant Staphylococcus aureus clinical isolate 8 incubated for 16 to 18 hrs by CLSI-based microbroth dilution method; assay type: functional; details: time 16-18 hrs
Staphylococcus aureus [3] = experiment: Antibacterial activity against methicillin-resistant Staphylococcus aureus clinical isolate 3 incubated for 16 to 18 hrs by CLSI-based microbroth dilution method; assay type: functional; details: time 16-18 hrs
Staphylococcus aureus [4] = experiment: Antibacterial activity against methicillin-resistant Staphylococcus aureus clinical isolate 4 incubated for 16 to 18 hrs by CLSI-based microbroth dilution method; assay type: functional; details: time 16-18 hrs
Staphylococcus aureus [5] = experiment: Antibacterial activity against methicillin-resistant Staphylococcus aureus clinical isolate 1 incubated for 16 to 18 hrs by CLSI-based microbroth dilution method; assay type: functional; details: time 16-18 hrs
Staphylococcus aureus [6] = experiment: Antibacterial activity against methicillin-resistant Staphylococcus aureus clinical isolate 5 incubated for 16 to 18 hrs by CLSI-based microbroth dilution method; assay type: functional; details: time 16-18 hrs
Staphylococcus aureus [7] = experiment: Antibacterial activity against Staphylococcus aureus ATCC 29213 incubated for 16 to 18 hrs by CLSI-based microbroth dilution method; assay type: functional; details: time 16-18 hrs
Staphylococcus aureus [8] = experiment: Antibacterial activity against methicillin-resistant Staphylococcus aureus clinical isolate 2 incubated for 16 to 18 hrs by CLSI-based microbroth dilution method; assay type: functional; details: time 16-18 hrs
Staphylococcus aureus [9] = experiment: Antibacterial activity against methicillin-resistant Staphylococcus aureus clinical isolate 6 incubated for 16 to 18 hrs by CLSI-based microbroth dilution method; assay type: functional; details: time 16-18 hrs
Staphylococcus aureus [10] = experiment: Antibacterial activity against methicillin-resistant Staphylococcus aureus clinical isolate 10 incubated for 16 to 18 hrs by CLSI-based microbroth dilution method; assay type: functional; details: time 16-18 hrs
[11] = Hemolytic activity in sheep erythrocytes incubated for 1 hr by absorbance based analysis; assay type: toxicity, cell-based, Ovis aries, Erythrocyte
Staphylococcus aureus [12] = experiment: Antibacterial activity against methicillin-resistant Staphylococcus aureus clinical isolate 9 incubated for 16 to 18 hrs by CLSI-based microbroth dilution method; assay type: functional; details: time 16-18 hrs

| Compound | MIC (Staphylococcus aureus [1]) [µg/mL] | MIC (Staphylococcus aureus [2]) [µg/mL] | MIC (Staphylococcus aureus [3]) [µg/mL] | MIC (Staphylococcus aureus [4]) [µg/mL] | MIC (Staphylococcus aureus [5]) [µg/mL] | MIC (Staphylococcus aureus [6]) [µg/mL] | MIC (Staphylococcus aureus [7]) [µg/mL] | MIC (Staphylococcus aureus [8]) [µg/mL] | MIC (Staphylococcus aureus [9]) [µg/mL] | MIC (Staphylococcus aureus [10]) [µg/mL] | HC50 at 1 h [11] [µg/mL] | MIC (Staphylococcus aureus [12]) [µg/mL] |
| --- | --- | --- | --- | --- | --- | --- | --- | --- | --- | --- | --- | --- |
| COc1cc2c(c(O)c1C(=O)/C=C/c1ccc(OCCCCC[N+](C)(C)CC(=O)N3CCSCC3)cc1)C=CC(C)(C)O2.[Br-] | 4 | 4 | 4 | 4 | 8 | 4 | 4 | 4 | 2 | 1 | 210 | 1 |
| CCCCCCNC(=O)C[N+](C)(C)CCCOc1ccc(/C=C/C(=O)c2c(OC)cc3c(c2O)C=CC(C)(C)O3)cc1.[Br-] | 4 | 2 | 2 | 2 | 2 | 2 | 2 | 2 | 4 | 1 | 97.9 | 1 |
| CCCN(CCC)C(=O)C[N+](C)(C)CCCOc1ccc(/C=C/C(=O)c2c(OC)cc3c(c2O)C=CC(C)(C)O3)cc1.[Br-] | 1 | 2 | 1 | 2 | 2 | 2 | 2 | 2 | 2 | 2 | 118 | 1 |
| COc1cc2c(c(O)c1C(=O)/C=C/c1ccc(OCCCC[N+](C)(C)CC(=O)N(CC(C)C)CC(C)C)cc1)C=CC(C)(C)O2.[Br-] | 1 | 2 | 1 | 4 | 2 | 1 | 4 | 2 | 1 | 4 | 333 | 2 |
| COc1cc2c(c(O)c1C(=O)/C=C/c1ccc(O)cc1)C=CC(C)(C)O2 [XANTHOHUMOL C] | 4 (≈ 11.4 µM) | 4 (≈ 11.4 µM) | 4 (≈ 11.4 µM) | 4 (≈ 11.4 µM) | 4 (≈ 11.4 µM) | 4 (≈ 11.4 µM) | 4 (≈ 11.4 µM) | 4 (≈ 11.4 µM) | 8 (≈ 22.7 µM) | 4 (≈ 11.4 µM) | 222 | 8 (≈ 22.7 µM) |
| COc1cc2c(c(O)c1C(=O)/C=C/c1ccc(OCCCC[N+](C)(C)CC(=O)N(C(C)C)C(C)C)cc1)C=CC(C)(C)O2.[Br-] | 2 | 2 | 2 | 2 | 8 | 2 | 2 | 2 | 1 | 2 | 657 | 2 |
| COc1cc2c(c(O)c1C(=O)/C=C/c1ccc(OCCC[N+](C)(C)CC(=O)N(C(C)C)C(C)C)cc1)C=CC(C)(C)O2.[Br-] | 2 | 2 | 1 | 2 | 2 | 1 | 4 | 2 | 1 | 4 | 158 | 2 |
| CCCN(CCC)C(=O)C[N+](C)(C)CCCCCOc1ccc(/C=C/C(=O)c2c(OC)cc3c(c2O)C=CC(C)(C)O3)cc1.[Br-] | 2 | 2 | 2 | 2 | 4 | 2 | 2 | 4 | 1 | 2 | 436 | 1 |
| CCCCCNC(=O)C[N+](C)(C)CCCCCOc1ccc(/C=C/C(=O)c2c(OC)cc3c(c2O)C=CC(C)(C)O3)cc1.[Br-] | 4 | 2 | 2 | 2 | 2 | 2 | 2 | 2 | 2 | 4 | 301 | 8 |
| CCCNC(=O)C[N+](C)(C)CCCCOc1ccc(/C=C/C(=O)c2c(OC)cc3c(c2O)C=CC(C)(C)O3)cc1.[Br-] | 2 | 2 | 2 | 4 | 2 | 4 | 4 | 2 | 2 | 4 | 410 | 2 |
| CCCCN(CCCC)C(=O)C[N+](C)(C)CCCCCOc1ccc(/C=C/C(=O)c2c(OC)cc3c(c2O)C=CC(C)(C)O3)cc1.[Br-] | 2 | 4 | 4 | 8 | 2 | 2 | 2 | 2 | 1 | 2 | 409 | 8 |
| COc1cc2c(c(O)c1C(=O)/C=C/c1ccc(OCCCCC[N+](C)(C)CC(=O)N3CCOCC3)cc1)C=CC(C)(C)O2.[Br-] | 4 | 4 | 4 | 4 | 2 | 4 | 8 | 4 | 2 | 2 | > 1280 | 4 |
| COc1cc2c(c(O)c1C(=O)/C=C/c1ccc(OCCC[N+](C)(C)CC(=O)N3CCOCC3)cc1)C=CC(C)(C)O2.[Br-] | 4 | 8 | 8 | 16 | 8 | 8 | 8 | 8 | 8 | 8 | > 1280 | 8 |
| CCCCNC(=O)C[N+](C)(C)CCCCOc1ccc(/C=C/C(=O)c2c(OC)cc3c(c2O)C=CC(C)(C)O3)cc1.[Br-] | 2 | 4 | 2 | 2 | 2 | 2 | 4 | 2 | 2 | 4 | 220 | 2 |
| CCCNC(=O)C[N+](C)(C)CCCCCOc1ccc(/C=C/C(=O)c2c(OC)cc3c(c2O)C=CC(C)(C)O3)cc1.[Br-] | 2 | 2 | 2 | 2 | 2 | 1 | 4 | 8 | 1 | 2 | 974 | 8 |
| COc1cc2c(c(O)c1C(=O)/C=C/c1ccc(OCCCCC[N+](C)(C)CC(=O)N(CC(C)C)CC(C)C)cc1)C=CC(C)(C)O2.[Br-] | 2 | 2 | 2 | 2 | 4 | 2 | 2 | 1 | 1 | 2 | 374 | 2 |
| CCCCCCNC(=O)C[N+](C)(C)CCCCOc1ccc(/C=C/C(=O)c2c(OC)cc3c(c2O)C=CC(C)(C)O3)cc1.[Br-] | 4 | 4 | 2 | 8 | 2 | 2 | 2 | 2 | 1 | 2 | 938 | 4 |
| COc1cc2c(c(O)c1C(=O)/C=C/c1ccc(OCCC[N+](C)(C)CC(=O)N3CCSCC3)cc1)C=CC(C)(C)O2.[Br-] | 2 | 2 | 2 | 4 | 4 | 2 | 2 | 2 | 2 | 4 | 416 | 2 |
| COc1cc2c(c(O)c1C(=O)/C=C/c1ccc(OCCCC[N+](C)(C)CC(=O)N3CCOCC3)cc1)C=CC(C)(C)O2.[Br-] | 4 | 4 | 4 | 8 | 8 | 4 | 8 | 8 | 4 | 16 | > 1280 | 8 |
| CCCCN(CCCC)C(=O)C[N+](C)(C)CCCCOc1ccc(/C=C/C(=O)c2c(OC)cc3c(c2O)C=CC(C)(C)O3)cc1.[Br-] | 4 | 4 | 1 | 2 | 1 | 2 | 2 | 2 | 1 | 2 | 466 | 1 |
| CCCCCCNC(=O)C[N+](C)(C)CCCCCOc1ccc(/C=C/C(=O)c2c(OC)cc3c(c2O)C=CC(C)(C)O3)cc1.[Br-] | 4 | 4 | 2 | 2 | 2 | 2 | 4 | 2 | 2 | 2 | 245 | 4 |
| COc1cc2c(c(O)c1C(=O)/C=C/c1ccc(OCCC[N+](C)(C)CC(=O)N(CC(C)C)CC(C)C)cc1)C=CC(C)(C)O2.[Br-] | 1 | 2 | 1 | 2 | 2 | 1 | 2 | 4 | 1 | 4 | 447 | 2 |
